Legend:
Format in all cases: cell-based
MCF7 cells = assay: Anti-proliferation (viability) of MCF7 cells (Table 7, FIG. 2B); conditions: Homo sapiens, MCF7, MCF7 cells, 3-6 days, 10-point serial dilution; read-out: GI IC50 in MCF-7
T47D parental cells = assay: CellTiter-Lumi cell viability assay, T47D parental cells, 6 days (FIG. 4); conditions: Homo sapiens, 144 h
Protocol: (§1) Furthermore, we developed one ER^+ breast cancer T47D model with acquired resistance after long period of treatment with 1 μM palbociclib (over IC90). Cells were deemed resistant when growing in the presence of palbo at the same rate as parental cells. Palbo resistance was determined by CellTiter-Lumi cell viability assay (FIG. 4, IC50>10,000 nM).

[1] = tested on: T47D palbo-resistant cells; assay: CellTiter-Lumi cell viability assay, T47D palbo-resistant cells, 6 days (FIG. 4); conditions: Homo sapiens, 144 h
Protocol: as §1

HCC1428 cells [2] = assay: Annexin V apoptosis flow cytometry, HCC1428 (FIG. 3B); conditions: HCC1428, dose approximating IC90, 6 days
Protocol: (§2) T47D cells were treated with DMSO, palbociclib, heterobifunctional compound CPD-10 for 6 days at doses approximating IC50 and IC90 concentrations as indicated (FIG. 3A). HCC1428 cells were treated with DMSO, palbociclib, heterobifunctional compound CPD-10, or its negative control compound CPD-143 for 6 days at doses approximating IC90 concentrations as indicated (FIG. 3B). Cells were harvested by trypsinization, staining was carried out using the Annexin V Apoptosis Detection Kit.
(§3) Assays were performed on the CytoFLEX Cytometer (Beckman Coulter), and data were analyzed using CytExpert software. For cell death and apoptosis analysis, cells were harvested by trypsinization, staining was carried out using the Annexin V Apoptosis Detection Kit (BD Biosciences). Briefly, cells were resuspended in 1× binding buffer and incubated with fluorochrome-conjugated Annexin V and 7-AAD for 15 min in darkness at room temperature.

HCC1428 cells [3] = assay: Flow cytometric analysis of Annexin V/7-AAD stained HCC1428 cells (apoptosis), 6 days (FIG. 3B); conditions: HCC1428, dose approximating IC90, 6 days
Protocol: as §2, with “IC50and” for “IC50 and”, “Kit. The percentages of early apoptotic (Annexin V^+7-AAD^−, lower right quadrant), late apoptotic (Annexin V^+7-AAD^+, upper right quadrant) and necrotic cells (Annexin V^−7-AAD^+, upper left quadrant) are indicated on dot plots.” for “Kit.”

T47D cells [4] = assay: Flow cytometric analysis of Annexin V/7-AAD stained T47D cells (apoptosis), 6 days (FIG. 3A)
Protocol: as §2, with “IC50and” for “IC50 and”, “Kit. The percentages of early apoptotic (Annexin V^+7-AAD^−, lower right quadrant), late apoptotic (Annexin V^+7-AAD^+, upper right quadrant) and necrotic cells (Annexin V^−7-AAD^+, upper left quadrant) are indicated on dot plots.” for “Kit.”

CDK4 [5] = biological target: T1, CDK4 (Homo sapiens, UniProt P11802+Q16531); assay: Immunoblotting of CDK4 protein level in Calu-1 and MCF7 cells (FIG. 1A-1B); set-up: Cells that express cyclin D1-3 and CDK4/6 proteins were treated with heterobifunctional compounds; endogenous in cells; host or cells: Calu-1
T1 sequence (P11802 2-303 limits assumed): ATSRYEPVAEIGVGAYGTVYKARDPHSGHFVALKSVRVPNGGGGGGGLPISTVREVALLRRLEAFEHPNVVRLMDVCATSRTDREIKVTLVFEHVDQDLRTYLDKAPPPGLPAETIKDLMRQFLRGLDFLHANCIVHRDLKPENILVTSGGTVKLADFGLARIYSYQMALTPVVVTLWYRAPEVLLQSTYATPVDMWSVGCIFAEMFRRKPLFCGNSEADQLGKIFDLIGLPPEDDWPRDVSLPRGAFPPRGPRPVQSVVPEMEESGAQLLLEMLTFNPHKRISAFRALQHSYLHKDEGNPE
T1 sequence (P24385 whole entry partner): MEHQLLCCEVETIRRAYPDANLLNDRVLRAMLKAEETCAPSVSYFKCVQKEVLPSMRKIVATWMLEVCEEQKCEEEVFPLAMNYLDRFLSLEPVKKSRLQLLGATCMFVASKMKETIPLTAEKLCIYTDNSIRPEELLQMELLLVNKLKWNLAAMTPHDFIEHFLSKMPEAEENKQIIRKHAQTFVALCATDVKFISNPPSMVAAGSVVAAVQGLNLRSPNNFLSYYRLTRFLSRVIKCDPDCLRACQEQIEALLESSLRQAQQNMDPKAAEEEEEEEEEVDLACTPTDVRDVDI
T1 sequence (Q16531 2-1140 limits assumed): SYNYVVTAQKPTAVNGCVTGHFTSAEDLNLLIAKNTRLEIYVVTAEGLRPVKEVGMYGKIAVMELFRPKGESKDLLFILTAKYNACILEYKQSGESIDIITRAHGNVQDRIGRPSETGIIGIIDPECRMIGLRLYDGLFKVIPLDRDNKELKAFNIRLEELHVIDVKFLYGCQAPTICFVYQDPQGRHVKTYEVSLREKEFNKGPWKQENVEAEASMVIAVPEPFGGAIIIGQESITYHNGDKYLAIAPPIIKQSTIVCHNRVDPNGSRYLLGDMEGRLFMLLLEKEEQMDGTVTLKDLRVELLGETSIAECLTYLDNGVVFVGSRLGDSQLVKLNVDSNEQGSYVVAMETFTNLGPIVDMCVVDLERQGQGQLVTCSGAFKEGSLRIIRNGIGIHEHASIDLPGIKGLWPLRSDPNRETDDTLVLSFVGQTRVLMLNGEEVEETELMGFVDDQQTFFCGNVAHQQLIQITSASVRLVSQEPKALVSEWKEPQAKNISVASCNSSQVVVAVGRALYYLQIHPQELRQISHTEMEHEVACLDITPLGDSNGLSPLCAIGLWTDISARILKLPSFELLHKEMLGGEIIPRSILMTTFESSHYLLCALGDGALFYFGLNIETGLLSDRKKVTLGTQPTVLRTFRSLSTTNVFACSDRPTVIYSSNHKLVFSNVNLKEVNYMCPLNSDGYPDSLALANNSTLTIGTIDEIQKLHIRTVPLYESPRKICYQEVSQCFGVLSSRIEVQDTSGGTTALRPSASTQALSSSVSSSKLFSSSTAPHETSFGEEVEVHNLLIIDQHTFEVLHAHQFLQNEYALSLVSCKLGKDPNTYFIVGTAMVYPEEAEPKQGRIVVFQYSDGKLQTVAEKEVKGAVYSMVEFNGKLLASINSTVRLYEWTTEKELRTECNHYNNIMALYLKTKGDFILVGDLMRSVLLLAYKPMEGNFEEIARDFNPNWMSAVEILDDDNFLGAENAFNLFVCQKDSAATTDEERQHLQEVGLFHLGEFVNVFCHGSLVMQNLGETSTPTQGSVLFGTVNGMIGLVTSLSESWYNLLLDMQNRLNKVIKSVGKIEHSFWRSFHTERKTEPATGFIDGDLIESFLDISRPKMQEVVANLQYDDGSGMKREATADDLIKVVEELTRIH
Protocol: (§4) Calu-1 cells were treated with heterobifunctional compound CPD-10, or CDK4/6 inhibitor palbociclib at indicated concentrations for 4 hours (FIG. 1A). MCF7 cells were deprived of serum for 2 hours followed by treatment with CPD-10, or palbociclib at indicated concentrations for 24 hours (FIG. 1B).
(§5) Antibody and Reagent Anti-cyclin D1 (29785), anti-cyclin D2 (3741S), anti-cyclin D3 (2936S), anti-CDK4 (127905), anti-CDK6 (3136S), anti-phospho-Rb (8516S), anti-FoxM1 (54365), anti-cyclinA2(4656S), anti-vinculin antibody (187995) antibodies were purchased from Cell Signaling Technology. HRP-conjugated anti-α-tubulin antibody and anti-α-GAPDH antibody were purchased from GNI. Media, and other cell culture reagents were purchased from Thermo Fisher Scientific. CellTiter-Glo Luminescent Assay kit was purchased from Promega.
Calu-1, T47D, MCF7, HCC1428 and other cells were cultured at 37° C. with 5% CO2 in RPMI 1640 or DMEM medium supplemented with 10% fetal bovine serum. Cells were authenticated using the short tandem repeat (STR) assays. Mycoplasma test results were negative. For palbo-resistant cell model, T47D cells were cultured long-term to resistance in the presence of 1 μM Palbociclib. Cells were deemed resistant when growing in the presence of Palbo at the same rate as parental cells.
Cultured cells were washed with cold PBS once and lysed in cold RIPA buffer supplemented with protease inhibitors and phosphatase inhibitors (Beyotime Biotechnology). The solutions were then incubated at 4 ? for 30 min with gentle agitation to fully lysed cells. Cell lysates were centrifuged at 13,000 rpm for 10 min at 4 ? and pellets were discarded. Total protein concentrations in the lysates were determined following BCA assays (Beyotime Biotechnology). Cell lysates were mixed with Laemmli loading buffer and heated at 99° C. for 5 min. Proteins were resolved on SDS-PAGE and visualized using Western ECL Substrate kits on a ChemiDoc MP Imaging system (Bio-Rad). Protein bands were quantitated using the Image Lab software provided by Bio-Rad.

CDK4 [6] = biological target: T1, CDK4; assay: CDK4 percentage degradation in Calu-1 cells (Table 6); set-up: Cells that express cyclin D1-3 and CDK4/6 proteins were treated with heterobifunctional compounds; endogenous in cells; host or cells: Calu-1; conditions: 16 hours
Method in brief: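 Percentage degradation of Cyclin D1 and CDK4 derived from densitometry of ECL Western blots on lysates of Calu-1 cells. Treatment was 16 h with compound at either 40 nM or 200 nM.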

cyclin A2 = assay: Immunoblotting of cyclin A2 protein level (FIG. 1A-1B); conditions: Calu-1 (4 hours), MCF7 (24 hours)
Protocol: as §4, §5
Calu-1, T47D, MCF7, HCC1428 and other cells were cultured at 37° C. with 5% CO2 in RPMI 1640 or DMEM medium supplemented with 10% fetal bovine serum. Cells were authenticated using the short tandem repeat (STR) assays. […]
Cultured cells were washed with cold PBS once and lysed in cold RIPA buffer supplemented with protease inhibitors and phosphatase inhibitors (Beyotime Biotechnology). […] Total protein concentrations in the lysates were determined following BCA assays (Beyotime Biotechnology). […] Protein bands were quantitated using the Image Lab software provided by Bio-Rad.

T47D cells [7] = assay: Annexin V apoptosis flow cytometry, T47D (FIG. 3A); conditions: 6 days
Protocol: as §2, §3

T47D cells [8] = assay: Anti-proliferation (viability) of ER+ breast cancer T47D cells, 6 days (Table 7, FIG. 2B); conditions: Homo sapiens, 144 h; T47D cells, 6 days, 10-point serial dilution; read-out: GI IC50 in T47D
Method in brief: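 Seed cells, add compound in ten serially diluted concentrations, then incubate (Calu-1: 3 days; T47D: 6 days) before measuring viability.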

SMILES: CNc1ccc(C(=O)Nc2ccc(N(C)C)nn2)c(NCCCCCCCNC(=O)CN2CCN(c3ccc(Nc4ncc5c(C)c(C(C)=O)c(=O)n(C6CCCC6)c5n4)nc3)CC2)n1 [CPD-10, 2-((7-(2-(4-(6-((6-acetyl-8-cyclopentyl-5-methyl-7-oxo-7,8-dihydropyrido[2,3-d]pyrimidin-2-yl)amino)pyridin-3-yl)piperazin-1-yl)acetamido)heptyl)amino)-N-(6-(dimethylamino)pyridazin-3-yl)-6-(methylamino)nicotinamide]
- IC50 (MCF7 cells): 50 to 100 nM
- IC50 (T47D parental cells): 19.5 nM
- IC50 [1]: 33 nM
- Annexin V+ population (HCC1428 cells [2]): 55.8%
- Annexin V+ population (HCC1428 cells [3]): 55.8%
- Annexin V+ population (T47D cells [4]; 15 nM): 20.9%
- Annexin V+ population (T47D cells [4]; 200 nM): 62.2%
- CDK4 protein level (CDK4 [5]; Calu-1 cells, 4 hours): reduced CCND1, CCND3, and CDK4 protein levels in a concentration-dependent manner in both cell lines
- CDK4 protein level (CDK4 [5]; MCF7 cells, serum deprived 2 hours, treated 24 hours): reduced CCND1, CCND3, and CDK4 protein levels in a concentration-dependent manner in both cell lines
- inhibition at 0.04 µM (CDK4 [6]; 40 nM): 50 to 80%
- inhibition at 0.2 µM (CDK4 [6]; 200 nM): > 80%
- cyclin A2 protein level (cyclin A2): inhibited downstream FoxM1 and cyclin A2 protein levels, and Rb phosphorylation in a concentration-dependent manner
- Annexin V+ population (T47D cells [7]; 15 nM): 20.9%
- Annexin V+ population (T47D cells [7]; 200 nM): 62.2%
- IC50 (T47D cells [8]): ≤ 50 nM

From patent publication US20260297081A1, “COMPOUNDS AND METHODS OF TREATING CANCERS” (Cullgen Inc., priority 2023, published 2026)
